# How the values were obtained:
# [1] = target: T1, 5-hydroxytryptamine receptor 1A (Homo sapiens, UniProt P08908); assay type: functional, cell-based
# T1 sequence (P08908 whole entry): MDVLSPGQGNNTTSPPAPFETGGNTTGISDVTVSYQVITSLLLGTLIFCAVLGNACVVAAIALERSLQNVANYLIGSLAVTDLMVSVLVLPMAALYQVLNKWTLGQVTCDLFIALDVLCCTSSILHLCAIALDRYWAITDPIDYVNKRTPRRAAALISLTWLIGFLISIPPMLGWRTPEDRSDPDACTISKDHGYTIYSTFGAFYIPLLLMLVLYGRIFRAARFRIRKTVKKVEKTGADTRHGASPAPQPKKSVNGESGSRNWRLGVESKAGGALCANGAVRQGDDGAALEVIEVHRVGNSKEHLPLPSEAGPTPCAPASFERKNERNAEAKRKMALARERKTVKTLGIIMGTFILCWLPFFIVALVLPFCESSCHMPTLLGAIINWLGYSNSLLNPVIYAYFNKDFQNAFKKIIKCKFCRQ
# Melanocortin receptor 4 = Melanocortin receptor 4 (Homo sapiens, UniProt P32245)
# Sequence of Melanocortin receptor 4 (P32245 whole entry): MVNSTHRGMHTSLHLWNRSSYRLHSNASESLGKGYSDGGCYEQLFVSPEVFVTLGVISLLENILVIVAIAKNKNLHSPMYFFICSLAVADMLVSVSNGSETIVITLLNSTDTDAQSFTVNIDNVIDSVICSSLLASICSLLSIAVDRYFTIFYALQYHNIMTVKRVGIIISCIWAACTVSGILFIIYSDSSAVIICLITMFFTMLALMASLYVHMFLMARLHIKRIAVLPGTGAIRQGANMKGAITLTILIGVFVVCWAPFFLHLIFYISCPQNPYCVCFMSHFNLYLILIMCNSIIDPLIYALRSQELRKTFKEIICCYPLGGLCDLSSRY
# Glucocorticoid receptor = target: T2, Glucocorticoid receptor (Homo sapiens, UniProt P04150)
# T2 sequence (P04150 whole entry): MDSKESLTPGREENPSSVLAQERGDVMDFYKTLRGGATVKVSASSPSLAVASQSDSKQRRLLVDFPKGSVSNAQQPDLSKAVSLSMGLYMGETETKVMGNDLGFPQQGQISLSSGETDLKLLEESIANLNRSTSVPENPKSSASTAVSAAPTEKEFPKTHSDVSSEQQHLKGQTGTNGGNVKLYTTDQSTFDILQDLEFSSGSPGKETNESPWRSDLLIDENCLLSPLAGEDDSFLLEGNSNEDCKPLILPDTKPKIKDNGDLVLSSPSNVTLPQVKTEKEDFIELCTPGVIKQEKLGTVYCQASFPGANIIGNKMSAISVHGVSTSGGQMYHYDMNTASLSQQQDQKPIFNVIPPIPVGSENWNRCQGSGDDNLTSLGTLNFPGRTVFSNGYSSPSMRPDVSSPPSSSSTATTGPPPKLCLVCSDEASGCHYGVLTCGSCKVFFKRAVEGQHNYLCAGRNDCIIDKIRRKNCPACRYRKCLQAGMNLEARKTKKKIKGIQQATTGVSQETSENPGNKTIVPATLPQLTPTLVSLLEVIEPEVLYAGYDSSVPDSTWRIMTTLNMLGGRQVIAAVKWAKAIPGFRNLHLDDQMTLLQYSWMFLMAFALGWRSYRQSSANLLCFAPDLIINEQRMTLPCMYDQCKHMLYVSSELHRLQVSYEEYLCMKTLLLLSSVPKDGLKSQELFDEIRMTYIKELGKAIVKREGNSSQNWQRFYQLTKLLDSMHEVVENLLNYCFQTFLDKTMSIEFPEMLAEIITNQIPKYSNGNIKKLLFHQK
# Mu-type opioid receptor [2] = target: T3, Mu-type opioid receptor (Homo sapiens, UniProt P35372)
# T3 sequence (P35372 whole entry): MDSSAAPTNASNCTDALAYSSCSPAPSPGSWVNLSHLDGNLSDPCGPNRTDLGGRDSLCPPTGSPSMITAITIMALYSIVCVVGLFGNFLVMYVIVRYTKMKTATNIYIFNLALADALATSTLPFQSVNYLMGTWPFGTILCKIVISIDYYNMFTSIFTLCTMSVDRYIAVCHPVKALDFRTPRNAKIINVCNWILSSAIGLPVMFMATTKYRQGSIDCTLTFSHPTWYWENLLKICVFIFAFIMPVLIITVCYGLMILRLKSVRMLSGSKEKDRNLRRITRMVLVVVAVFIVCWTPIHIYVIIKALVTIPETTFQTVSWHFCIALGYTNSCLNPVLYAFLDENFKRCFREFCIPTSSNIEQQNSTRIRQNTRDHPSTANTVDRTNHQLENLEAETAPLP
# [3] = target: T4, Gastrin/cholecystokinin type B receptor (Homo sapiens, UniProt P32239)
# T4 sequence (P32239 whole entry): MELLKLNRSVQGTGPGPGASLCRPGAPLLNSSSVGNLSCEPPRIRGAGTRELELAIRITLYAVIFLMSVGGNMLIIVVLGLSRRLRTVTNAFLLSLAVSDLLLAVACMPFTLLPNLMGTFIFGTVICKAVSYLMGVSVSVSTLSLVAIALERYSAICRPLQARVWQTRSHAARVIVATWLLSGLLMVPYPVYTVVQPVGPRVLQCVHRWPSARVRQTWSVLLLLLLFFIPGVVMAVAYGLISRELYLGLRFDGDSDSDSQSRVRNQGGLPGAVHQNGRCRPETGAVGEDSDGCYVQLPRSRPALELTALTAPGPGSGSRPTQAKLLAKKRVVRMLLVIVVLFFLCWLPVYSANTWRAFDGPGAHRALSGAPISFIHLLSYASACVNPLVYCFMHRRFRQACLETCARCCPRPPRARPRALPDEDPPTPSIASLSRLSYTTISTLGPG
# Estrogen receptor = target: T5, Estrogen receptor (Homo sapiens, UniProt P03372)
# T5 sequence (P03372 whole entry): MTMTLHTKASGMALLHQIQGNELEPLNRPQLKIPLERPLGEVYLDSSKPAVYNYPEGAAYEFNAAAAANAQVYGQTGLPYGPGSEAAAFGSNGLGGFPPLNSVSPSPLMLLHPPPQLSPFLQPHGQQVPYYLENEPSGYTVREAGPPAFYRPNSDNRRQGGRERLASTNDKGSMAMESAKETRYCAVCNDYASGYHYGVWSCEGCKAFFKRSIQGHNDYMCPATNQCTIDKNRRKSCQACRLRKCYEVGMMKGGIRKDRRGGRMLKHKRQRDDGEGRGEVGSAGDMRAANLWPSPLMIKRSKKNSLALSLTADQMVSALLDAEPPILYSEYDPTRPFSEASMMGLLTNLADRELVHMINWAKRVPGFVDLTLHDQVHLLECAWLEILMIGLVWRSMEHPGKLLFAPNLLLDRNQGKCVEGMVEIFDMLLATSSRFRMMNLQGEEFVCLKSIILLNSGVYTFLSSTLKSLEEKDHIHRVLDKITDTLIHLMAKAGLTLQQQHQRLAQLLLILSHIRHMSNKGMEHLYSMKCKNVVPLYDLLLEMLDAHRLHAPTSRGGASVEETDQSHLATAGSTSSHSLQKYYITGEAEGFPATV
# Mu-type opioid receptor [4] = target: T3, Mu-type opioid receptor; assay: biochemical; assay type: functional
# [5] = target: Muscarinic acetylcholine receptor M3 (Homo sapiens, UniProt P20309)
# Sequence of Muscarinic acetylcholine receptor M3 (P20309 whole entry): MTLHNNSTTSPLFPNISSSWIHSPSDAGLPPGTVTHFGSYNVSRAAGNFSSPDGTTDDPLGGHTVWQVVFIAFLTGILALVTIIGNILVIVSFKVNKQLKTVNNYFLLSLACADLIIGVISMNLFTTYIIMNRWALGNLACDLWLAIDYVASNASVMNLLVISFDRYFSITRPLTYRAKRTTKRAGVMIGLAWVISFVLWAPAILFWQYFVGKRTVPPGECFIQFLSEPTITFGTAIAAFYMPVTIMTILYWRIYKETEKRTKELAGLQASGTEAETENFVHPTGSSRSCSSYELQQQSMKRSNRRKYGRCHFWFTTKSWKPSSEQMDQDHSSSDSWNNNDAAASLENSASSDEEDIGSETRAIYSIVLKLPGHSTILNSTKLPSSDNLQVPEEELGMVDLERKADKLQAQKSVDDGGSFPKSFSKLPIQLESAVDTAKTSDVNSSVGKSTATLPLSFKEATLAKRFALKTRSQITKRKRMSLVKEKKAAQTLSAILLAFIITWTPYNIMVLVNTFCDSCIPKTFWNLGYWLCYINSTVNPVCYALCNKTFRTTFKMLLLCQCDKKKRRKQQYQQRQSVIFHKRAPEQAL
# [6] = target: Beta-2 adrenergic receptor (Homo sapiens, UniProt P07550); assay type: functional, cell-based
# Sequence of Beta-2 adrenergic receptor (P07550 whole entry): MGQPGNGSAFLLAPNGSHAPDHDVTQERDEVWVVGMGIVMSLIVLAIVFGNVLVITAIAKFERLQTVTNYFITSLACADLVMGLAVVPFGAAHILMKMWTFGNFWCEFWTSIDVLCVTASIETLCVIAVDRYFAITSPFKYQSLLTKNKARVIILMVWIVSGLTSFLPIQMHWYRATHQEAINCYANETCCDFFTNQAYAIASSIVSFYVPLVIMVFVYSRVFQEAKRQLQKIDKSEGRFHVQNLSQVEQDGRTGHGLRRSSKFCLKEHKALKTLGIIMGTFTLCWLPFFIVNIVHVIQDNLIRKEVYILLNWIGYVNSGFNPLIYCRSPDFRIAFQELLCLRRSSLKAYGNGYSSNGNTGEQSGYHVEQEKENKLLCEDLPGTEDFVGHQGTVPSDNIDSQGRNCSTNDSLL
# Further: assay procedure not described here.
Compound,AC50 [1] [µM],AC50 (Melanocortin receptor 4) [µM],AC50 (Glucocorticoid receptor) [µM],AC50 [3] [µM],AC50 (Estrogen receptor) [µM],AC50 (Mu-type opioid receptor [4]) [µM],AC50 [5] [µM],AC50 (Mu-type opioid receptor [2]) [µM],AC50 [6] [µM]
N=C(N)NC(=O)c1nc(Cl)c(N)nc1N [AMILORIDE],16,> 30,> 30,> 30,> 30,4,,> 10,
COc1ccc(-c2cc(=S)ss2)cc1 [ANETHOLTRITHION],> 30,,> 30,5.3,> 30,> 30,> 30,,
CC(C)(C)NCC(O)COc1ccccc1C#N (configuration not stated) [BUNITROLOL],,,,,,> 30,> 30,,> 30
C[C@]12CCC(=O)C=C1C=C[C@@H]1[C@@H]2CC[C@@]2(C)[C@H]1CC[C@@]21CCC(=O)O1 [CANRENONE],> 30,,1.3,> 30,> 30,> 30,> 30,,> 30
CN(C)CCC(O)(c1ccccc1)c1ccccc1Cl (configuration not stated) [CHLOPHEDIANOL],,> 10,> 10,,> 10,,> 30,> 30,
C[C@]12C=CC(=O)C=C1C(Cl)=C[C@@H]1[C@@H]2[C@@H](O)C[C@@]2(C)[C@H]1CC[C@]2(O)C(=O)CO [CLOPREDNOL],> 30,,0.032,> 30,> 30,> 30,> 30,,> 30
COc1cccc2c1C(=O)c1c(O)c3c(c(O)c1C2=O)C[C@@](O)(C(=O)CO)C[C@@H]3O[C@H]1C[C@H](N)[C@H](O)[C@H](C)O1 [DOXORUBICIN],,> 30,2.59,> 30,0.53,,,> 30,> 30
CC(NCCC(c1ccccc1)c1ccccc1)c1ccccc1 (configuration not stated) [FENDILINE],,,,,,,,0.78,
COc1ccc(C(=O)c2ccccc2)c(O)c1 [OXYBENZONE],,,,,,> 30,> 30,,> 30
Cc1ccc(O)c([C@H](CCN(C(C)C)C(C)C)c2ccccc2)c1 [TOLTERODINE],> 10,,,,,,,> 10,
Oc1cc(Cl)ccc1Oc1ccc(Cl)cc1Cl [TRICLOSAN],,,> 30,> 30,,> 30,> 30,,> 30

# Continued, in another order:
AC50 [1] [µM],AC50 (Melanocortin receptor 4) [µM],AC50 (Glucocorticoid receptor) [µM],AC50 [3] [µM],AC50 (Estrogen receptor) [µM],AC50 (Mu-type opioid receptor [4]) [µM],AC50 [5] [µM],Compound,AC50 (Mu-type opioid receptor [2]) [µM],AC50 [6] [µM]
,,,> 30,,> 30,> 30,C[C@]12CCC(=O)C=C1[C@@H]1C[C@@H]1[C@H]1[C@@H]3[C@@H]4C[C@@H]4[C@@]4(CCC(=O)O4)[C@@]3(C)CC[C@@H]12 [DROSPIRENONE],,
,,> 30,> 30,> 30,> 30,> 30,CC(C)(Oc1ccc(Cl)cc1)C(=O)OCCOC(=O)c1cccnc1 [ETOFIBRATE],,> 30
> 10,> 30,,> 30,> 30,,,C[C@]12C=CC(=O)C=C1CC[C@@H]1[C@@H]2[C@@H](O)C[C@@]2(C)[C@H]1CC[C@]2(O)C(=O)CO [PREDNISOLONE],> 30,> 30
2.7,> 10,> 30,,> 30,,0.18,CCC(=O)c1ccc2c(c1)N(CC(C)N(C)C)c1ccccc1S2 (configuration not stated) [PROPIOMAZINE],14,
> 30,> 10,25.8,,,,> 10,CN(C)[C@@H]1C(O)=C(C(=O)NCN2CCCC2)C(=O)[C@@]2(O)C(O)=C3C(=O)c4c(O)cccc4[C@@](C)(O)[C@H]3C[C@@H]12 [ROLITETRACYCLINE],> 30,
> 30,,0.0031,> 30,,> 30,,CC1(C)O[C@@H]2C[C@H]3[C@@H]4CCC5=CC(=O)C=C[C@]5(C)[C@@]4(F)[C@@H](O)C[C@]3(C)[C@]2(C(=O)CO)O1 [TRIAMCINOLONE ACETONIDE],,
